The subject of this test is TF-1 cells. Description: Proliferation assay with TF-1 cells by MTT. It is filed as cell-based. Conditions: MTT-assay data, dose-response fitted with GraphPad. How it is done:
TF-1 Cells in logarithmic growth phase (˜2×10^5−1×10^6 cells/ml; RPMI medium; 20% fetal calf serum; supplemented with Penicillin, streptomycin, L-Glutamine; 0.5 ng/ml Interleukin 3) are washed (centrifuge 5 min. 1500 rpm and resuspend in RPMI complete without IL3 at 500,000 cells/ml) and pre-cultured before start of the assay for 24 h without IL-3. At the next day the cells are seeded in 24- or 96-well plates usually using at least 6 concentrations and 4 wells per concentration containing at least 10,000 cells/well per agent to be tested. Each experiment includes controls comprising recombinant EPO as a positive control agent and wells without addition of cytokine as negative control agent. Peptides and EPO-controls are prediluted in medium to the desired concentrations and added to the cells, starting a culture period of 3 days under standard culture conditions (37° C., 5% carbon dioxide in the gas phase, atmosphere saturated with water). […]
At day 4, prior to start of the analysis, a dilution series of a known number of TF-1 cells is prepared in a number of wells (0/2500/5000/10000/20000/50000 cells/well in 100 μl medium). These wells are treated in the same way as the test wells and later provide a calibration curve from which cell numbers can be determined. […] 25 μl of 10% sodium dodecylsulfate in water are added to each well prior to measurement E492 in an ELISA Reader.
For orientation: Tetrazolium dyes change colour on reduction, which living cells bring about.

In the case of GGTYSCHFGGLTWVCKPQGG [SEQ. ID NO. 12], the EC50 values entry is recorded as “no activity detectable”.

The values are drawn from patent US7589063B2, “Molecules which promote hematopoiesis” (Aplagen GmbH, priority 2004, dated 2009).
